These results are taken from article PMC11408460 (Cellular and Molecular Life Sciences: CMLS, 2024).

Data set [1] relates to HeLa GL cells. Description: Autophagy quantification by immunofluorescence (GFP-LC3B puncta area). The note with it: 4 h, peptides 1 mg/ml, Chloroquine 10 µM, Torin-1 1 µM, confocal microscopy, n = 32–110 cells. The class given is cell-based. The protocol:
HeLa GL cells were grown on coverslips (VWR) and treated for 4 h with respective substance. Afterwards, cells were fixed with 4% (w/v) PFA (Santa Cruz) for 20 min and permeabilized as well as blocked with 0.5% (v/v) Triton-X-100 (Sigma-Aldrich) and 5% (v/v) fetal bovine serum (Gibco) PBS for 1 h, both at RT. Cells were then mounted on microscope slides (VWR) in 4′,6-diamidino-2-phenylindole (DAPI, VWR)-containing Mowiol mounting medium (Mowiol 4–88 10% (w/v, Carl Roth), glycerol 25% (w/v, Sigma-Aldrich), H2O 25% (v/v), 0.2 M Tris HCl pH 8.5 50% (v/v, AppliChem GmbH, VWR), DABCO 2.5% (w/v, Carl Roth)) to co-stain nuclei. After acquiring ≥ 30 randomly selected cells using a Zeiss LSM 710 confocal microscope, a custom ImageJ (Version 1.54j) macro was used to analysis the total area of the cytoplasmic eGFP-LC3B puncta as previously described.
Scale bar, 10 µm. DAPI (blue), nuclei. e Quantitative analysis of the LC3B-GFP area per cell of the data in (d). Lines represent geometric mean with 95% confidence interval, n = 32–110. […] Student’s t-test with Welch correction. *p < 0.05; **p < 0.01; ***p < 0.001

A further data set is described as follows: in vitro. The note with it: human, plasma.
For data set [2] the following is noted: HBA1(111–132) incubated in human plasma, 37 °C, mass spectrometry.
Procedure: (§1) The mixture was centrifuged at 13,000 rpm for 30 s, and 150 µl of the supernatant was mixed with 750 µl 10% acetic acid in ice. The samples were analyzed by an Axima Confidence MALDI-TOF MS (Shimadzu) in linear mode using exactly the same measurement conditions for all samples spotted on a 384-well plate. Wells were coated with 1 µl of 5 mg/ml CHCA previously dissolved in matrix diluent (Shimadzu), and the solvent was allowed to evaporate. Then, each sample (0.5 µl), previously mixed with matrix (0.5 µl), was applied onto the dry pre-coated well, and the solvent was allowed to evaporate. Laser shots were automatically done following a regular circular raster of a diameter of 2000 µm and spacing of 200 µm on each well; 100 profiles were acquired per sample, and 20 shots were accumulated per profile. An accelerating voltage of 20 kV was applied to the ion source. Three experiments were performed, and the measurements of each sample were done in triplicate (81 measurements in total). The measurement and MS data processing (peak area calculation) were controlled by MALDI-MS Application Shimadzu Biotech Launchpad 2.9.8.1 (Shimadzu). Half-lives were calculated by GraphPad Prism 9.3.1 (GraphPad Software, LLC).
For data set [3] the following is noted: 1 mg/ml peptide in 1 × PBS, 22 °C, absorbance 330 nm, triplicates, corrected against PBS.
Procedure: 100 µl peptide solution was transferred to transparent 96-well F-bottom microplates (Greiner) and immediately processed. Before the measurement, solutions were briefly mixed by double-orbital shaking for 60 s at 240 rpm. Measurements were done at 22 °C in triplicates using a TECAN Spark plate reader at a wavelength of 330 nm and a bandwidth of 3.5 nm. Values were corrected against 1 × PBS and averaged.
Data set [4] deals with HeLa GL cells. Put plainly: Autophagy quantification via flow cytometry (membrane-bound eGFP-LC3B), HeLa GL. The class given is cell-based. The note with it: 4 h; for autophagosome levels, versions of HBA1(120–132): 1 mg/ml, co-treatment with 20 µM Chloroquine, n = 10–24. The protocol:
A detailed protocol for quantification of the number of autophagosomes has previously been published. In brief, HEK293T, HeLa, and THP-1 cell lines stably expressing eGFP-LC3B (labelled as -GL respectively) were used. After cells were treated for 4 h with respective substance/fraction, cells were harvested by removing the medium and adding 0.05% trypsin (PAN Biotech). Afterwards cells were washed once with PBS and permeabilized with 0.05% (w/v) Saponin (Sigma-Aldrich) in PBS. Non-membrane bound eGFP-LC3B was washed out using PBS. Cells were fixed in 4% (w/v) paraformaldehyde in PBS. Quantification of the membrane associated eGFP-LC3B was performed using flow cytometry FACS Canto II, BD Biosciences. The mean eGFP-LC3B fluorescence intensity of the water control was then subtracted from each sample.
To discover endogenous regulators of autophagy, we analyzed a human peptide library derived from bone marrow (BM). In brief, marrow was removed from 1.5 kg human femur bones and homogenized in acetic acid. The homogenate was filtered to contain only peptides with a molecular mass below 30 kDa. The BM library was initially separated on a reversed-phase column. To analyze the autophagy-modulating properties of individual peptide fractions, we used a high-throughput flow cytometry-based autophagosome quantification system. A hallmark of autophagy is the transition from soluble LC3B-I to autophagosome-associated LC3B-II. In GFP-LC3B expressing HeLa cells (HeLa GL), soluble GFP-LC3B is washed out by mild permeabilization and the remaining membrane-bound GFP-LC3B is quantified by FACS as a proxy for autophagosome numbers. Changes in autophagosome content are visualized as deviations from the background (i.e. carrier) control. […] Further purification identified subfraction BM.25.40.28 as bioactive (Fig. 1c). To identify the active peptide(s) we subjected fractions BM.25.40.26 to BM.25.40.30 to analysis by mass spectrometry (Supplementary data 1). Peptides with a molecular mass from ~ 750 Da to 5360 Da and a length from 7 to 57 amino acids were found in the fractions (Supplementary Fig. 1a). […]
On the technique in general: In flow cytometry, cells or beads pass a laser one at a time.

For data set [5] the following is noted: human; cited from earlier work.
The next data set is described as follows: Circular dichroism. It counts as physicochemical. Conditions: 10 mM phosphate buffer pH 7.4, 25 °C; 130 µM HBA1(120–132), 54 µM HBA1(111–132), 2.1 µM full-length human HB. The method, then: Circular dichroism spectroscopy was recorded on a JASCO J-1500 spectrophotometer at 25 °C using a 0.1 cm path length quartz cuvette from Hellma Analytical. Data points were collected at a resolution of 0.2 nm, an integration time of 2 s and a scanning speed of 5 nm min-1. Each spectrum was the result of three accumulated independent scans. Phosphate buffer solution (10 mM, pH = 7.4) was employed to solubilize the samples. […] Background subtraction was performed using the solvent. Secondary structure estimation (SSE) for the samples was conducted using the CD Multivariate SSE program included in the JASCO spectrometer.
Background: Circular dichroism is widely used to follow secondary structure.

A word on the half-life: it is how long it takes for the measured level to halve.

Residues, ends and D or L forms follow the SMILES beside them.

Procedure for in vitro: as §1

Turning to `CCN(CC)CCCC(C)Nc1ccnc2cc(Cl)ccc12` (stereo not drawn) [Chloroquine], the “GFP-LC3B area per cell (puncta = autophagosomes)” value in the data set with HeLa GL cells [1] is on record as “expected increase of autophagosomes”.

Regarding `CC(C)C[C@H](NC(=O)[C@H](Cc1ccccc1)NC(=O)[C@H](CCCCN)NC(=O)[C@H](CC(=O)O)NC(=O)[C@H](CC(C)C)NC(=O)[C@H](CO)NC(=O)[C@H](C)NC(=O)[C@H](Cc1c[nH]cn1)NC(=O)[C@@H](NC(=O)[C@H](C)NC(=O)[C@@H]1CCCN1C(=O)[C@@H](NC(=O)[C@H](Cc1ccccc1)NC(=O)[C@H](CCC(=O)O)NC(=O)[C@H](C)NC(=O)[C@@H]1CCCN1C(=O)[C@H](CC(C)C)NC(=O)[C@H](Cc1c[nH]cn1)NC(=O)[C@H](C)NC(=O)[C@H](C)N)[C@@H](C)O)C(C)C)C(=O)N[C@@H](C)C(=O)N[C@@H](CO)C(=O)O` [HBA1(111–132)] (H-AAHLPAEFTPAVHASLDKFLAS-OH), in the data set “in vitro”, the half-life at 8.7 µM is 52 min.

`CC(C)C[C@H](NC(=O)[C@H](Cc1ccccc1)NC(=O)[C@H](CCCCN)NC(=O)[C@H](CC(=O)O)NC(=O)[C@H](CC(C)C)NC(=O)[C@H](CO)NC(=O)[C@H](C)NC(=O)[C@H](Cc1c[nH]cn1)NC(=O)[C@@H](NC(=O)[C@H](C)NC(=O)[C@@H]1CCCN1C(=O)[C@@H](NC(=O)[C@H](Cc1ccccc1)NC(=O)[C@H](CCC(=O)O)NC(=O)[C@H](C)NC(=O)[C@@H]1CCCN1C(=O)[C@H](CC(C)C)NC(=O)[C@@H](N)Cc1c[nH]cn1)[C@@H](C)O)C(C)C)C(=O)N[C@@H](C)C(=O)N[C@@H](CO)C(=O)O` [HBA1(113–132)] (H-HLPAEFTPAVHASLDKFLAS-OH): in data set [2], the “time of appearance of degradation fragment above 5% of total HBA1 content” value was no more than 15 min and the “time of peak abundance of degradation fragment post plasma treatment” value is reported as greater than 140 min.

With `CC(C)C[C@H](NC(=O)[C@H](Cc1ccccc1)NC(=O)[C@H](CCCCN)NC(=O)[C@H](CC(=O)O)NC(=O)[C@H](CC(C)C)NC(=O)[C@H](CO)NC(=O)[C@H](C)NC(=O)[C@H](Cc1c[nH]cn1)NC(=O)[C@@H](NC(=O)[C@H](C)NC(=O)[C@@H]1CCCN1C(=O)[C@@H](NC(=O)[C@H](Cc1ccccc1)NC(=O)[C@H](CCC(=O)O)NC(=O)[C@H](C)NC(=O)[C@@H]1CCCN1)[C@@H](C)O)C(C)C)C(=O)N[C@@H](C)C(=O)N[C@@H](CO)C(=O)O` [HBA1(115–132)] (H-PAEFTPAVHASLDKFLAS-OH), in data set [2], the “time of appearance of degradation fragment above 5% of total HBA1 content” value was found to be 180 min.

With `CC(C)C[C@H](NC(=O)[C@H](CO)NC(=O)[C@H](C)NC(=O)[C@H](Cc1c[nH]cn1)NC(=O)[C@@H](NC(=O)[C@H](C)NC(=O)[C@@H]1CCCN1)C(C)C)C(=O)N[C@@H](C)C(=O)N[C@@H](C)C(=O)N[C@@H](Cc1ccccc1)C(=O)N[C@@H](CC(C)C)C(=O)N[C@@H](C)C(=O)N[C@@H](CO)C(=O)O` [HBA1(120–132)D127A + K128A] (H-PAVHASLAAFLAS-OH), in data set [3], the “solubility (precipitation turbidity, optical density)” value (“solubility” for short) was “almost insoluble in water”.

On to `CC(C)C[C@H](NC(=O)[C@H](C)NC(=O)[C@H](C)NC(=O)[C@H](Cc1c[nH]cn1)NC(=O)[C@@H](NC(=O)[C@H](C)NC(=O)[C@@H]1CCCN1)C(C)C)C(=O)N[C@@H](CC(=O)O)C(=O)N[C@@H](CCCCN)C(=O)N[C@@H](Cc1ccccc1)C(=O)N[C@@H](CC(C)C)C(=O)N[C@@H](C)C(=O)N[C@@H](C)C(=O)O` [HBA1(120–132)S125A + S132A] (H-PAVHAALDKFLAA-OH), for which the “solubility” value in data set [3] is “remained similar to HBA1(120–132)”.

Regarding `CCC(=O)N1CCN(c2ccc(-n3c(=O)ccc4cnc5ccc(-c6cnc7ccccc7c6)cc5c43)cc2C(F)(F)F)CC1` [Torin-1], the “GFP-LC3B area per cell (puncta = autophagosomes)” value in the data set with HeLa GL cells [1] is “expected increase of autophagosomes”.

Regarding “D128A: HBA1(120–132) with aspartic acid exchanged for alanine (PAVHASLAKFLAS; UniProt P69905 120-132, looked up, fragment D127A)”, the “autophagosome levels, versions of HBA1(120–132)” value in the data set on HeLa GL cells [4] is on record as “does not alter the function”. The “solubility” value in data set [3] is reported as “does not alter the function nor the solubility”.

Take “K127A: HBA1(120–132) with lysine exchanged for alanine (PAVHASLDAFLAS; UniProt P69905 120-132, looked up, fragment K128A)”: in the data set on HeLa GL cells [4], the “autophagosome levels, versions of HBA1(120–132)” value is “the function to inhibit autophagy was reduced”. For the same compound, in data set [3], the “solubility” value is listed as “precipitates were detected”.

On to TNF-α, for which the half-life entry in data set [5] is “around 18 min”.

In the case of “full-length HB: recombinant full-length hemoglobin”, the “secondary structure in solution (circular dichroism)” value in “Circular dichroism” is reported as “mainly composed of alpha-helical structures”.

Take “full-length HBA1: full-length hemoglobin A (HB subunit alpha-1)”: the “effect on autophagosome levels” value with HeLa GL cells [4] (concentration range 1 mg/ml–7.8 µg/ml, n = 3) was “did not impact autophagosome levels”.
